{"source": "patent EP4635944A1", "about": "“2-AZABICYCLO[3.1.1]HEPTANE COMPOUND” (Daiichi Sankyo Company, Limited, priority 2022, dated 2024)"}
{"target": "T1, human OX2R (Homo sapiens, UniProt O43614)", "T1 construct": "host or cells: CHO-K1 (Chinese Hamster Ovary K1)", "T1 sequence (O43614 1-444)": "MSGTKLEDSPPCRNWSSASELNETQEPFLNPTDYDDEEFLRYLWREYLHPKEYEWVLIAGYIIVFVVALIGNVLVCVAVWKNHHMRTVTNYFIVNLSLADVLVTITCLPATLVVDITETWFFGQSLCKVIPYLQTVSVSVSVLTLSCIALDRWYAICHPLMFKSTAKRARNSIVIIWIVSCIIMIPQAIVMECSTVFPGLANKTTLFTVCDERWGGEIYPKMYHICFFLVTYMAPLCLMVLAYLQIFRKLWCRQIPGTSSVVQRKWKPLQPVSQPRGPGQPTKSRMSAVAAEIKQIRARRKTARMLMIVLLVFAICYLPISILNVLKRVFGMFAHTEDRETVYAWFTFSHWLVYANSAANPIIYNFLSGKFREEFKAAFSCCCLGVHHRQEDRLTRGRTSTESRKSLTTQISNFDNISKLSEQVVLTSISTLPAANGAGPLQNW", "assay": "Evaluation of OX2R agonist activity (intracellular calcium, CHO-K1 cells with forced expression of human OX2R)", "format": "cell-based", "details": "CHO-K1 cells expressing human OX2R; 100% = 5 µM of the reference compound; read-out: hOX2R EC50", "method": "Evaluation of OX2R agonist activity\nChinese Hamster Ovary K1 (CHO-K1) cells (GenScript) with forced expression of human OX2R were seeded onto a 384 well microplate (Corning) at 7500 cells/well and cultured for 24 hours. 20 µL of the loading buffer (25 mM HEPES containing 1.25 mM of Probenecid and 2.5 µg/mL of Fluo 4-AM at final concentration, Hank's balanced salt solution, 0.06% Pluronic F-127, Quenching buffer) in the Calcium Kit II (DOJINDO LABORATORIES) was added, and the microplate was allowed to stand for 30 minutes. A reference compound (Example435 of WO 2019/027058, N-[(2S,3S)-2-[[3-(3,5-difluorophenyl)-2-fluoro-phenyl]methyl]-1-(2-hydroxy-2-methylpropanoyl)pyrrolidin-3-yl]ethanesulfonamide) or the test compound was added in 10 µL, and changes in intracellular calcium ion concentration were measured using FDSS7000EX (Hamamatsu Photonics K.K.) as a fluorescence intensity ratio obtained upon dual wavelength excitation at 480 nm and 540 nm. Note that the reference compound or test compound was dissolved in DMSO (final concentration of DMSO was 0.5%) and diluted with an assay buffer (20 mM HEPES, Hank's balanced salt solution, 0.1% BSA). The difference between the maximum and minimum fluorescence values between 5 and 7 seconds after the addition of the test compound or reference compound was used as the indicator. The value of wells to which the assay buffer containing no test compound was added was defined as 0%, and the value of wells to which 5 µM of the reference compound was added was defined as 100%. The 50% effective concentration (EC50 value) was determined from the values obtained when various concentrations of the test compound were added. […]", "units": {"EC50": "nM"}}
{"molecule": "C[C@@H](O)C(=O)N1C2CC(C2)[C@H](NS(C)(=O)=O)[C@@H]1Cc1cccc(-c2cccc3c2OC(F)(F)O3)c1F", "note": "[Example 38, N-{(3S,4S)-3-[3-(2,2-Difluoro-1,3-benzodioxol-4-yl)-2-fluorobenzyl]-2-[(2R)-2-hydroxypropanoyl]-2-azabicyclo[3.1.1]heptan-4-yl}methanesulfonamide]", "EC50": 68}
{"molecule": "CS(=O)(=O)NC1C(Cc2cccc(-c3cc(F)cc(F)c3)c2F)N(C(=O)C2CC2)C2CC1(F)C2", "note": "(single isomer, unassigned) [Example 36, N-{(3S,4R)-2-(Cyclopropylcarbonyl)-5-fluoro-3-[(2,3',5'-trifluoro[biphenyl]-3-yl)methyl]-2-azabicyclo[3.1.1]heptan-4-yl}methanesulfonamide or N-{(3R,4S)-2-(cyclopropylcarbonyl)-5-fluoro-3-[(2,3',5'-trifluoro[biphenyl]-3-yl)methyl]-2-azabicyclo[3.1.1]heptan-4-yl}methanesulfonamide]", "EC50": 62}
{"molecule": "CCC(=O)N1C2CC(C2)[C@H](NS(C)(=O)=O)[C@@H]1Cc1cccc(-c2ccccc2)c1F", "note": "[Example 56, N-{(3S,4S)-3-[(2-Fluoro[biphenyl]-3-yl)methyl]-2-propanoyl-2-azabicyclo[3.1.1]heptan-4-yl}methanesulfonamide]", "EC50": 244}
{"molecule": "CS(=O)(=O)N[C@H]1C2CC(C2)N(C(=O)NCC2CC2)[C@H]1Cc1cccc(-c2cc(F)cc(F)c2)c1F", "note": "[Example 39, (3S,4S)-N-(Cyclopropylmethyl)-4-[(methylsulfonyl)amino]-3-[(2,3',5'-trifluoro[biphenyl]-3-yl)methyl]-2-azabicyclo[3.1.1]heptane-2-carboxamide]", "EC50": 94}
{"molecule": "CC(C)(O)C(=O)N1C2CC(C2)[C@H](NS(C)(=O)=O)[C@@H]1Cc1cccc(-c2cc(F)cc(C(F)F)c2)c1F", "note": "[Example 51, N-[(3S,4S)-3-{[3'-(Difluoromethyl)-2,5'-difluoro[biphenyl]-3-yl]methyl}-2-(2-hydroxy-2-methylpropanoyl)-2-azabicyclo[3.1.1]heptan-4-yl]methanesulfonamide]", "EC50": 33}
{"molecule": "CS(=O)(=O)N[C@@H]1[C@H](Cc2cccc(-c3ccccc3)c2F)N(C(=O)C2(O)CC2)C2CC1(F)C2", "note": "[Example 71, N-{(3S,4R)-5-Fluoro-3-[(2-fluoro[biphenyl]-3-yl)methyl]-2-[(1-hydroxycyclopropyl)carbonyl]-2-azabicyclo[3.1.1]heptan-4-yl}methanesulfonamide]", "EC50": 39}
{"molecule": "[2H]C([2H])([2H])[C@@]([2H])(O)C(=O)N1C2CC(F)(C2)[C@H](NS(=O)(=O)CC)[C@@H]1Cc1cccc(-c2ccccc2)c1F", "note": "[Example 90, N-{(3S,4R)-5-Fluoro-3-[(2-fluoro[biphenyl]-3-yl)methyl]-2-[(2R)-2-hydroxy(^2H4)propanoyl]-2-azabicyclo[3.1.1]heptan-4-yl}ethanesulfonamide]", "EC50": 21}
{"molecule": "C[C@H](O)C(=O)N1C2CC(C2)[C@H](NS(C)(=O)=O)[C@@H]1Cc1cccc(-c2cc(F)cc(F)c2)c1F", "note": "[Example 15, N-{(3S,4S)-2-[(2S)-2-Hydroxypropanoyl]-3-[(2,3',5'-trifluoro[biphenyl]-3-yl)methyl]-2-azabicyclo[3.1.1]heptan-4-yl}methanesulfonamide]", "EC50": 303}
{"molecule": "CC(C)(O)C(=O)N1C2CC(F)(C2)C(NS(C)(=O)=O)C1Cc1cccc(-c2cccc(Cl)c2)c1F", "note": "(single isomer, unassigned) [Example 61, N-[(3S,4R)-3-[(3'-Chloro-2-fluoro[biphenyl]-3-yl)methyl]-5-fluoro-2-(2-hydroxy-2-methylpropanoyl)-2-azabicyclo[3.1.1]heptan-4-yl]methanesulfonamide or N-[(3R,4S)-3-[(3'-chloro-2-fluoro[biphenyl]-3-yl)methyl]-5-fluoro-2-(2-hydroxy-2-methylpropanoyl)-2-azabicyclo[3.1.1]heptan-4-yl]methanesulfonamide]", "EC50": 40}
{"molecule": "CC(C)(O)C(=O)N1C2CC(C2)[C@H](NS(C)(=O)=O)[C@@H]1Cc1cccc(-c2cccc(C(F)(F)F)c2)c1F", "note": "[Example 18, N-[(3S,4S)-3-{[2-Fluoro-3'-(trifluoromethyl)[biphenyl]-3-yl]methyl}-2-(2-hydroxy-2-methylpropanoyl)-2-azabicyclo[3.1.1]heptan-4-yl]methanesulfonamide]", "EC50": 784}
{"molecule": "CS(=O)(=O)NC1C2CC(C2)N(C(=O)C2CC2)C1Cc1ccnc(-c2cc(F)cc(F)c2)c1F", "note": "(single isomer, unassigned) [Example 22, N-[2-(Cyclopropylcarbonyl)-3-{[2-(3,5-difluorophenyl)-3-fluoropyridin-4-yl]methyl}-2-azabicyclo[3.1.1]heptan-4-yl]methanesulfonamide]", "EC50": 80}
{"molecule": "CS(=O)(=O)N[C@@H]1[C@H](Cc2cc(F)cc(-c3ccccc3)c2F)N(C(=O)[C@H](O)C(F)(F)F)C2CC1(F)C2", "note": "[Example 79, N-{(3S,4R)-3-[(2,5-Difluoro[biphenyl]-3-yl)methyl]-5-fluoro-2-[(2S)-3,3,3-trifluoro-2-hydroxypropanoyl]-2-azabicyclo[3.1.1]heptan-4-yl}methanesulfonamide]", "EC50": 40}
{"molecule": "CS(=O)(=O)N[C@H]1C2CC(C2)N(C(=O)CO)[C@H]1Cc1cccc(-c2cc(F)cc(F)c2)c1F", "note": "[Example 34, N-{(3S,4S)-2-(Hydroxyacetyl)-3-[(2,3',5'-trifluoro[biphenyl]-3-yl)methyl]-2-azabicyclo[3.1.1]heptan-4-yl}methanesulfonamide]", "EC50": 289}
{"molecule": "CC(C)(O)C(=O)N1C2CC(C2)[C@H](NS(C)(=O)=O)[C@@H]1Cc1cccc(-c2cccc(F)c2F)c1F", "note": "[Example 8, N-{(3S,4S)-2-(2-Hydroxy-2-methylpropanoyl)-3-[(2,2',3'-trifluoro[biphenyl]-3-yl)methyl]-2-azabicyclo[3.1.1]heptan-4-yl}methanesulfonamide]", "EC50": 83}
{"molecule": "C[C@@H](O)C(=O)N1C2CC(C2)[C@H](NS(C)(=O)=O)[C@@H]1Cc1cccc(-c2cccc(C3CC3)c2)c1F", "note": "[Example 41, N-{(3S,4S)-3-[(3'-Cyclopropyl-2-fluoro[biphenyl]-3-yl)methyl]-2-[(2R)-2-hydroxypropanoyl]-2-azabicyclo[3.1.1]heptan-4-yl}methanesulfonamide]", "EC50": 31}
{"molecule": "CS(=O)(=O)NC1C2CC(C2)N(C(=O)C2CC2)C1Cc1ccnc(-c2cccc(Cl)c2)c1F", "note": "(single isomer, unassigned) [Example 60, N-[3-{[2-(3-Chlorophenyl)-3-fluoropyridin-4-yl]methyl}-2-(cyclopropylcarbonyl)-2-azabicyclo[3.1.1]heptan-4-yl]methanesulfonamide]", "EC50": 75}
{"molecule": "[2H]c1c([2H])c([2H])c(-c2cccc(C[C@H]3[C@@H](NS(C)(=O)=O)C4CC(C4)N3C(=O)[C@@H](C)O)c2F)c([2H])c1[2H]", "note": "[Example 54, N-{(3S,4S)-3-{[2-Fluoro(2',3',4',5',6'-^2H5)[biphenyl]-3-yl]methyl}-2-[(2R)-2-hydroxypropanoyl]-2-azabicyclo[3.1.1]heptan-4-yl}methanesulfonamide]", "EC50": 22}
{"molecule": "CC(C)(O)C(=O)N1C2CC(C2)[C@H](NS(C)(=O)=O)[C@@H]1Cc1cccc(-c2cc(F)cc(Cl)c2)c1F", "note": "[Example 52, N-[(3S,4S)-3-[(3'-Chloro-2,5'-difluoro[biphenyl]-3-yl)methyl]-2-(2-hydroxy-2-methylpropanoyl)-2-azabicyclo[3.1.1]heptan-4-yl]methanesulfonamide]", "EC50": 34}
{"molecule": "C[C@H](O)CC(=O)N1C2CC(C2)[C@H](NS(C)(=O)=O)[C@@H]1Cc1cccc(-c2ccccc2)c1F", "note": "(single isomer, unassigned) [Example 86]", "EC50": 112}
